Assay results taken from ChEMBL document CHEMBL4422622, “Identification of Mineralocorticoid Receptor Modulators with Low Impact on Electrolyte Homeostasis but Maintained Organ Protection” (J Med Chem, 2019).

Assays:
[1] = Intrinsic clearance in Han Wistar rat hepatocytes assessed per million cells at 1 uM after 4 hrs by LC/MS/MS analysis; format: ADME, cell-based, Hepatocyte; settings: read-out: CLH
Rattus norvegicus [2] = assay: Induction of hyperkalemia in Sprague-Dawley rat fed on low salt diet for 72 hrs assessed as increase in eplerenone-mediated Na+/K+ ratio in urine administered via oral gavage co-administered with after 8 hrs; format: organism-based; settings: in vivo
Glucocorticoid receptor = target: T1, Glucocorticoid receptor (Homo sapiens, UniProt P04150)
T1 sequence (P04150 whole entry): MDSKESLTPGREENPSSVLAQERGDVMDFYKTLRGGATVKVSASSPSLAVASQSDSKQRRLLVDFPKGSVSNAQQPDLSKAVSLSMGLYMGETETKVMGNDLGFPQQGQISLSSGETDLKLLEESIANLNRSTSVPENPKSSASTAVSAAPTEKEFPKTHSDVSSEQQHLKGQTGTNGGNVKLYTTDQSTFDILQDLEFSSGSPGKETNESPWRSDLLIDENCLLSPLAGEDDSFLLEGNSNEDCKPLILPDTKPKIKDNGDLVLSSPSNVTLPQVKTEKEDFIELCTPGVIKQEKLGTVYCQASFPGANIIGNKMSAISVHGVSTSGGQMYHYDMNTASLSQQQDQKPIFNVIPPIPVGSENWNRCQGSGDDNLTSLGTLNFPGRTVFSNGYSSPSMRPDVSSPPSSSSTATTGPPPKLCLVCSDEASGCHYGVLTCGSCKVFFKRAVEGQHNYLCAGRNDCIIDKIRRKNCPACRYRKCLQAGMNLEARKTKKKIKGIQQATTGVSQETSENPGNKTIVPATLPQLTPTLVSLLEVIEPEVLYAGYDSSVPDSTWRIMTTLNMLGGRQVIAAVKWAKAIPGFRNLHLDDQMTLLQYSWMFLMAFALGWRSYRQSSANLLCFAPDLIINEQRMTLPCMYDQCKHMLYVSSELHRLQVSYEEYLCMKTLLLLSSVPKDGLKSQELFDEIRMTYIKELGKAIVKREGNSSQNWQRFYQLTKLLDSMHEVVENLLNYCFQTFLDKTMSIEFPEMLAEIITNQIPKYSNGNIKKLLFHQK
Description: Binding affinity to recombinant human GR LBD by fluormone GS red-fluorescence polarization assay

[3] = Fraction unbound in Han Wistar rat plasma at 1 uM after 4 hrs by LC/MS/MS analysis; format: ADME, cell-free
[4] = target: T2, Mineralocorticoid receptor (Homo sapiens, UniProt P08235)
T2 sequence (P08235 whole entry): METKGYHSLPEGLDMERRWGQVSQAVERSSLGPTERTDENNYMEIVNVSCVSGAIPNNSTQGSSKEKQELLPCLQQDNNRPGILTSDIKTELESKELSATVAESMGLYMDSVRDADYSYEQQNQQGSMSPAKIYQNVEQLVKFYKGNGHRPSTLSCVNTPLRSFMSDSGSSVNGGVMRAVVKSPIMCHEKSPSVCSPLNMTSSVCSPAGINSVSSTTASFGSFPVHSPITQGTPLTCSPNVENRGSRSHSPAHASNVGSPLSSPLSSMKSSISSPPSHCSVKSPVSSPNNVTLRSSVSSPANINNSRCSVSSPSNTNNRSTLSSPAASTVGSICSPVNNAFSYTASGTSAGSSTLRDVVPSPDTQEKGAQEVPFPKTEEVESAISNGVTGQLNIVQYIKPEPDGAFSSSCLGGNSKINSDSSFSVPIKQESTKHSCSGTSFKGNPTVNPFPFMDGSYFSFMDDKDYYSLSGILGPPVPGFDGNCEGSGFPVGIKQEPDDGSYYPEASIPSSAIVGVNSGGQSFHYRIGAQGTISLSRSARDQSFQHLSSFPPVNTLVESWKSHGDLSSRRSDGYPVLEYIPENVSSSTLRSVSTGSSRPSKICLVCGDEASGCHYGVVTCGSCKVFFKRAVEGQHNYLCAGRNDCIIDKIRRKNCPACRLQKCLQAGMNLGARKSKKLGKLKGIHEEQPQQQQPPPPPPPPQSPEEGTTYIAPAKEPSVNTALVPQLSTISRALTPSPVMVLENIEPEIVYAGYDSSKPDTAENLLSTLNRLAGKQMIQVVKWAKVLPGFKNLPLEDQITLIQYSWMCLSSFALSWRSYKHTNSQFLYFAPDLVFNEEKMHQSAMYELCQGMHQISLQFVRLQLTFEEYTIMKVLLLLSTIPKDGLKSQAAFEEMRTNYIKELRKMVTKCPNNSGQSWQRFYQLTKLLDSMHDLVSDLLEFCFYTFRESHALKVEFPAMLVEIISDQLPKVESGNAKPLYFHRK
Description: Displacement of [3H]-aldosterone to human mineralocorticoid receptor LBD by radiometric binding assay

[5] = Oral bioavailability in Han Wistar rat at 48 mg/kg by LC-MS/MS analysis; format: ADME, organism-based; settings: in vivo
[6] = target: T2, Mineralocorticoid receptor; remark: listed apart in the source
Description: Modulation activity at human mineralocorticoid receptor in human EA.hy926 cells assessed as induction of nuclear translocation of mineralocorticoid receptor in absence of aldosterone by receptor translocation assay

[7] = target: T2, Mineralocorticoid receptor; remark: listed apart in the source
Description: Antagonist activity at gal4-fused human mineralocorticoid receptor LBD expressed in UAS-MR-bla HEK293 cells by luciferase reporter gene assay

[8] = Intrinsic clearance in human hepatocytes assessed per million cells at 1 uM measured up to 120 mins in presence of NADPH by LC-MS/MS analysis; format: ADME, cell-based, Hepatocyte; settings: read-out: CLH
[9] = target: T2, Mineralocorticoid receptor; remark: listed apart in the source
Description: Modulation activity at human mineralocorticoid receptor in human EA.hy926 cells assessed as blocking of nuclear translocation of mineralocorticoid receptor in presence of aldosterone by receptor translocation assay

[10] = Clearance in Han Wistar rat at 1.2 mg/kg, iv by LC-MS/MS analysis; format: ADME, organism-based; settings: in vivo
[11] = Octanol-water partitioning co-efficient, log D of the compound at pH 7.4 by LC/MS/MS analysis; format: physicochemical
Rattus norvegicus [12] = assay: Induction of hyperkalemia in Sprague-Dawley rat fed on low salt diet for 72 hrs assessed as increase in Na+/K+ ratio in urine administered via oral gavage after 8 hrs; format: organism-based; settings: in vivo
[13] = target: T3, Mineralocorticoid receptor (Rattus norvegicus, UniProt P22199)
T3 sequence (P22199 whole entry): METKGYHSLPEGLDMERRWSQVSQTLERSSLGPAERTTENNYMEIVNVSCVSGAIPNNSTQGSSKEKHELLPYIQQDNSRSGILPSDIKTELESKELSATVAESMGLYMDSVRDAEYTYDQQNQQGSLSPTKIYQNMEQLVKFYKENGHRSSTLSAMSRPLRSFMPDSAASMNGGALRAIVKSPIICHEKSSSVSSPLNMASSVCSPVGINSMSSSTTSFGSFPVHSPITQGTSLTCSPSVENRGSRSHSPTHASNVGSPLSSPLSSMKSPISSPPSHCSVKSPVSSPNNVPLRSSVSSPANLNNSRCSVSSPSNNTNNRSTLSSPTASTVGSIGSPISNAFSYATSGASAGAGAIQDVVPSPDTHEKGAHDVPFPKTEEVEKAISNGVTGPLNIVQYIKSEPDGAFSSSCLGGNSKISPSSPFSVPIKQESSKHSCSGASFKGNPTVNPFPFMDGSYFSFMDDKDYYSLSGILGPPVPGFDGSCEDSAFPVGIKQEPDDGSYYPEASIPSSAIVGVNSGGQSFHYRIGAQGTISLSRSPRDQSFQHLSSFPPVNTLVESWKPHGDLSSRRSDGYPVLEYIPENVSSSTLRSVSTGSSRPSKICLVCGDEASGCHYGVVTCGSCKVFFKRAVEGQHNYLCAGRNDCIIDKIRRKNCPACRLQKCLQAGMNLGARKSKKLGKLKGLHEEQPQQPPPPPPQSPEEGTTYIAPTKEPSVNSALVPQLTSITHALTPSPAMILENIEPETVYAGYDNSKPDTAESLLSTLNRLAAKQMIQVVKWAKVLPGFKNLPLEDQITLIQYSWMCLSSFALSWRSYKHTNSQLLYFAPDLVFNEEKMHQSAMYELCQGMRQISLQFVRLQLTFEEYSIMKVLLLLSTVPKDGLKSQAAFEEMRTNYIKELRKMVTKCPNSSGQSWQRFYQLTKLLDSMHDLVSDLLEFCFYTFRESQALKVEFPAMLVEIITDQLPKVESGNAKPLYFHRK
Description: Antagonist activity at gal4-fused rat mineralocorticoid receptor LBD in expressed in human U2OS cells by luciferase reporter gene assay

[14] = Terminal half life in Han Wistar rat at 1.2 mg/kg, iv by LC-MS/MS analysis; format: ADME, organism-based; settings: in vivo, read-out: beta t1/2 (converted)
[15] = Volume of distribution at steady state in Han Wistar rat at 1.2 mg/kg, iv by LC-MS/MS analysis; format: ADME, organism-based; settings: in vivo, read-out: Vdss

hepatocyte CLint at 1 µM [1]: 20 µL/min/1e6 cells
Ki (Glucocorticoid receptor): 158 nM
fraction unbound at 4 h, 1 µM [3]: 0.34
Ki [4]: 100 nM
bioavailability [5]: 45%
EC50 [6]: > 10000 nM
IC50 [7]: 1000 nM
hepatocyte CLint at 1 µM [8]: 4.6 µL/min/1e6 cells
IC50 [9]: 100 nM
clearance [10]: 32 mL/min/kg
logD [11]: 1.8
IC50 [13]: 79.4 nM
half-life [14]: 18 min
Vd [15]: 0.8 L/kg
Compound: CNC(=O)C[C@H]1COc2ccc(Cl)cc2N1C(=O)c1ccc2c(c1)NC(=O)CO2
Activity (Rattus norvegicus [2]): Toxic
Activity (Rattus norvegicus [12]): Toxic
